Holding throughout (assay type): cell-based
In experiment [1] the test system is Ba/F3-FGFR3-transfected cells in the presence of 10 ng/ml murine IL3. Put plainly: Ba/F3-FGFR3 (plus IL3) cellular proliferation counterscreen, Alamar Blue. Particulars: for IC50: Mus musculus. Put shortly: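 Counterscreen adds 10 ng/ml murine IL3, otherwise matching the IL3-free run. In both, FGFR3-transfected Ba/F3 cells (20000 or 10000 per well) incubate with compound for 24 h at 37° C. and 5% CO2; viability is read as resazurin fluorescence (540/590 nm) after 4 h with Alamar Blue.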

The subject of experiment [2] is Ba/F3-KDR-transfected cells in the presence of 10 ng/ml murine IL3. Put plainly: Ba/F3-KDR (plus IL3) cellular proliferation counterscreen, Alamar Blue. As to conditions: plus 10 ng/ml murine IL3; for IC50: Mus musculus. In short, it runs like this: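 Readout is resazurin (Alamar Blue) fluorescence, ex 540/em 590 nm, after 4 h, following 24 h compound exposure of KDR-transfected Ba/F3 cells at 37° C, 5% CO2 in 10% FBS RPMI. Plus-IL3 arm adds 10 ng/ml murine IL3; otherwise same conditions.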

Experiment [3] relates to Ba/F3-Flt3-transfected cells in the presence of 10 ng/ml murine IL3. Put plainly: Ba/F3-Flt3 (plus IL3) cellular proliferation counterscreen, Alamar Blue. As to conditions: Mus musculus, read-out: BAF3-FLT3 (PLUS IL3) 96 well pIC50 (converted).
[4] abbreviates: plus 10 ng/ml murine IL3, 384 well.
The mark [5] stands for this setting: plus 10 ng/ml murine IL3, 384 well, read-out: BAF3-FGFR 3 (PLUS IL3) 384 well pIC50 (converted).
Where [6] appears, read: read-out: BAF3-KDR (PLUS IL3) 384 well pIC50 (converted).
Setting [7] is: plus IL3, 96 well, read-out: BAF3-FGFR 3 (PLUS IL3) 96 well pIC50 (converted).
[8] abbreviates: read-out: BAF3-KDR (PLUS IL3) 96 well pIC50 (converted).

Experimental findings from patent US10052320B2, “Substituted quinoxalines as FGFR kinase inhibitors” (ASTEX THERAPEUTICS LIMITED, priority 2011, dated 2018) are described below.

Like-named read-outs stand apart in the source and are kept apart here.

As for `COc1cc(OC)cc(N(CC(O)C(F)(F)F)c2ccc3ncc(-c4cccnc4)nc3c2)c1` (single isomer, unassigned) [Compound 54], the “BAF3-FGFR 3 (PLUS IL3) 384 well pIC50” value in experiment [1] (setting [4]) was under 5. Besides, the “BAF3-KDR (PLUS IL3) 384 well pIC50” value in experiment [2] is under 5.

Turning to `COc1cc(OC)cc(N(CC(OC(C)=O)C(F)(F)F)c2ccc3ncc(-c4cccnc4)nc3c2)c1` (single isomer, unassigned) [Compound 75], in experiment [1] (setting [4]), the “BAF3-FGFR 3 (PLUS IL3) 384 well pIC50” value was under 5. The “BAF3-KDR (PLUS IL3) 384 well pIC50” value in experiment [2] is under 5.

On to `COCCCN(c1cc(OC)cc(OC)c1)c1ccc2ncc(-c3ccn(C)c3)nc2c1` [Compound 3], for which the IC50 in experiment [1] (setting [5]) and in experiment [2] (setting [6]) was over 10 µM throughout.

Take `COCCN(c1cc(OC)cc(OC)c1)c1ccc2ncc(-c3ccn(C)c3)nc2c1` [Compound 6]: the IC50 in experiment [1] (setting [5]) and in experiment [2] (setting [6]) was over 10 µM each time.

Regarding `COc1cc(OC)cc(N(CCO)c2ccc3ncc(-c4cccnc4)nc3c2)c1` [Compound 9], the IC50 in experiment [1] (setting [5]) and in experiment [2] (setting [6]) was over 10 µM throughout.

Regarding `COc1cc(OC)cc(N(CCO)c2ccc3ncc(-c4ccncc4)nc3c2)c1` [Compound 11], the IC50 in experiment [1] (setting [5]) and in experiment [2] (setting [6]) was over 10 µM throughout.

Regarding `COc1cc(OC)cc(N(CCNC(C)C)c2ccc3ncc(-c4ccncc4)nc3c2)c1` [Compound 12], the IC50 in experiment [1] (setting [5]) and in experiment [2] (setting [6]) was over 10 µM each time.

Take `COc1cc(OC)cc(N(CC2CC2)c2ccc3ncc(-c4ccnn4C)nc3c2)c1` [Compound 18]: the IC50 in experiment [1] (setting [5]), in experiment [1] (setting [7]), in experiment [2] (setting [6]) and in experiment [3] (plus 10 ng/ml murine IL3) was over 10 µM throughout.

For `COc1cc(OC)cc(N(CC2CC2)c2ccc3ncc(-c4ccc5c(ccn5C)c4)nc3c2)c1` [Compound 20], the IC50 in experiment [3] (plus IL3, 96 well) is over 10 µM.

Regarding `COc1cc(OC)cc(N(CC2CC2)c2ccc3ncc(-c4cn(C)cn4)nc3c2)c1` [Compound 21], the IC50 in experiment [3] (plus 10 ng/ml murine IL3) was over 10 µM.

In the case of `COc1cc(OC)cc(N(CC2CC2)c2ccc3ncc(C#Cc4ccncc4)nc3c2)c1` [Compound 23], the IC50 in experiment [3] (plus 10 ng/ml murine IL3) was 5.62 µM.

Turning to `COc1cc(OC)cc(N(CC2CC2)c2ccc3ncc(-c4cn(CCN5CCOCC5)nn4)nc3c2)c1` [Compound 24], the IC50 in experiment [3] (plus 10 ng/ml murine IL3) was over 10 µM.

Turning to `COc1cc(OC)cc(N(CC2CC2)c2ccc3ncc(-n4cnc(C)c4)nc3c2)c1` [Compound 30], the IC50 in experiment [1] (setting [5]), in experiment [1] (setting [7]), in experiment [2] (setting [8]), in experiment [2] (setting [6]) and in experiment [3] (plus 10 ng/ml murine IL3) was over 10 µM throughout.

With `COc1cc(OC)cc(N(CC2CC2)c2ccc3ncc(-n4ccc(C)n4)nc3c2)c1` [Compound 31], the IC50 in experiment [3] (plus 10 ng/ml murine IL3) was over 10 µM.

`COc1cc(OC)cc(N(CC2CC2)c2ccc3ncc(-n4ccnc4C)nc3c2)c1` [Compound 32]: in experiment [3] (plus 10 ng/ml murine IL3), the IC50 is over 10 µM.

Take `COc1cc(OC)cc(N(CC2CC2)c2ccc3ncc(-c4cc[nH]c4)nc3c2)c1` [Compound 36]: in experiment [3] (plus 10 ng/ml murine IL3), the IC50 was over 10 µM.

With `COc1cc(OC)cc(N(CC2CC2)c2ccc3ncc(-c4cn(CCO)nn4)nc3c2)c1` [Compound 40], the IC50 in experiment [1] (setting [5]), in experiment [1] (setting [7]), in experiment [2] (setting [8]), in experiment [2] (setting [6]) and in experiment [3] (plus 10 ng/ml murine IL3) was over 10 µM throughout.

Turning to `COc1cc(OC)cc(N(CC2CC2)c2ccc3ncc(-c4nnn[nH]4)nc3c2)c1` [Compound 41], the IC50 in experiment [3] (plus 10 ng/ml murine IL3) is over 10 µM.

With `COc1cc(OC)cc(N(CCCO)c2ccc3ncc(-c4ccc(N5CCNCC5)nc4)nc3c2)c1` [Compound 48], the IC50 was 5.5 µM in experiment [1] (setting [5]) and 5.25 µM in experiment [2] (setting [6]).

For `COc1cc(OC)cc(N(CC2CC2)c2ccc3ncc(-n4cncn4)nc3c2)c1` [Compound 50], the IC50 in experiment [1] (setting [5]), in experiment [1] (setting [7]), in experiment [2] (setting [8]), in experiment [2] (setting [6]) and in experiment [3] (plus 10 ng/ml murine IL3) was over 10 µM throughout.

As to `COc1cc(OC)cc(N(Cc2cccc(CN)n2)c2ccc3ncc(-c4ccc(N)nc4)nc3c2)c1` [Compound 51], the IC50 in experiment [1] (setting [5]) is about 8.13 µM; in experiment [2] (setting [6]), over 10 µM.

As for `COc1cc(OC)cc(N(CC2CC2)c2ccc3ncc(-c4cnco4)nc3c2)c1` [Compound 55], the IC50 in experiment [3] (plus 10 ng/ml murine IL3) is over 10 µM.

As to `COc1cc(OC)cc(N(CC2CC2)c2ccc3ncc(-c4ccn(CCO)c4)nc3c2)c1` [Compound 56], the IC50 in experiment [1] (setting [5]), in experiment [1] (setting [7]), in experiment [2] (setting [8]), in experiment [2] (setting [6]) and in experiment [3] (plus 10 ng/ml murine IL3) was over 10 µM throughout.

With `COc1cc(OC)cc(N(CC2CC2)c2ccc3ncc(-c4ccn[nH]4)nc3c2)c1` [Compound 58], the IC50 in experiment [3] (plus 10 ng/ml murine IL3) is over 10 µM.

On to `COc1cc(OC)cc(N(CC2CC2)c2ccc3ncc(-c4nccn4C)nc3c2)c1` [Compound 60], for which the IC50 in experiment [3] (plus 10 ng/ml murine IL3) was over 10 µM.

Regarding `COc1cc(OC)cc(N(CC2CC2)c2ccc3ncc(Nc4cnn(C)c4)nc3c2)c1` [Compound 61], the IC50 in experiment [1] (setting [5]) was over 10 µM; in experiment [1] (setting [7]), 3.98 µM; in experiment [2] (setting [6]) it was over 10 µM; in experiment [3] (plus 10 ng/ml murine IL3) it was 6.76 µM.

As to `COc1cc(OC)cc(N(CC2CC2)c2ccc3ncc(-n4nccc4C)nc3c2)c1` [Compound 62], in experiment [3] (plus 10 ng/ml murine IL3), the IC50 is over 10 µM.

As for `CCOC(=O)c1ncn(-c2cnc3ccc(N(CC4CC4)c4cc(OC)cc(OC)c4)cc3n2)c1C` [Compound 65], the IC50 in experiment [3] (plus 10 ng/ml murine IL3) was over 10 µM.

In the case of `COc1cc(OC)cc(N(CC2CC2)c2ccc3ncc(-c4cn[nH]n4)nc3c2)c1` [Compound 69], the IC50 in experiment [3] (plus 10 ng/ml murine IL3) is over 10 µM.

Take `COc1cc(OC)cc(N(CC2CC2)c2ccc3ncc(-c4cnn(C)n4)nc3c2)c1` [Compound 70]: the IC50 in experiment [1] (setting [5]), in experiment [1] (setting [7]), in experiment [2] (setting [8]), in experiment [2] (setting [6]) and in experiment [3] (plus 10 ng/ml murine IL3) was over 10 µM in each case.

On to `COc1cc(OC)cc(N(CC2CC2)c2ccc3ncc(-c4cnnn4C)nc3c2)c1` [Compound 72], for which the IC50 in experiment [3] (plus 10 ng/ml murine IL3) is over 10 µM.

For `COc1cc(OC)cc(N(CC2CC2)c2ccc3ncc(-c4ccn(C)c4)nc3c2)c1` [Compound 73], the IC50 in experiment [3] (plus 10 ng/ml murine IL3) was over 10 µM.

Take `COc1cc(OC)cc(N(CC(O)CO)c2ccc3ncc(-c4ccc(N)nc4)nc3c2)c1` (stereo not shown) [Compound 74]: the IC50 in experiment [1] (setting [5]) and in experiment [2] (setting [6]) was over 10 µM in each case.

For `COc1cc(OC)cc(N(CC2CC2)c2ccc3ncc(-c4nnn(C)n4)nc3c2)c1` [Compound 82], in experiment [3] (plus 10 ng/ml murine IL3), the IC50 is over 10 µM.

Take `COc1cc(OC)cc(N(CC2CC2)c2ccc3ncc(C(=O)NCCN4CCOCC4)nc3c2)c1` [Compound 96]: in experiment [3] (plus 10 ng/ml murine IL3), the IC50 was over 10 µM.

Regarding `COc1cc(OC)cc(N(CC2CC2)c2ccc3ncc(-c4nccs4)nc3c2)c1` [Compound 97], in experiment [3] (plus 10 ng/ml murine IL3), the IC50 is over 10 µM.

For `COc1cc(OC)cc(N(CC2CC2)c2ccc3ncc(Nc4nccs4)nc3c2)c1` [Compound 98], the IC50 in experiment [3] (plus 10 ng/ml murine IL3) was over 10 µM.

On to `COc1cc(OC)cc(N(CC2CC2)c2ccc3ncc(C(=O)NCc4ccc(F)cc4)nc3c2)c1` [Compound 101], for which, in experiment [3] (plus 10 ng/ml murine IL3), the IC50 is over 10 µM.

As for `COc1cc(OC)cc(N(CC2CC2)c2ccc3ncc(Nc4nncs4)nc3c2)c1` [Compound 102], the IC50 in experiment [3] (plus 10 ng/ml murine IL3) is over 10 µM.

Consider `COc1cc(OC)cc(N(CC2CC2)c2ccc3ncc(-c4cccn4C)nc3c2)c1` [Compound 103], for which the IC50 in experiment [3] (plus 10 ng/ml murine IL3) is over 10 µM.

As for `COc1cc(OC)cc(N(CC2CC2)c2ccc3ncc(-c4ocnc4C)nc3c2)c1` [Compound 104], the IC50 in experiment [1] (setting [5]) and in experiment [2] (setting [6]) was over 10 µM throughout.

`COc1cc(OC)cc(N(CCO)c2ccc3ncc(-c4ccc(OC)nc4)nc3c2)c1` [Compound 111]: the IC50 in experiment [1] (setting [5]) and in experiment [2] (setting [6]) was over 10 µM each time.

On to `COc1cc(OC)cc(N(CCCO)c2ccc3ncc(-c4cccnc4)nc3c2)c1` [Compound 112], for which the IC50 in experiment [1] (setting [5]) and in experiment [2] (setting [6]) was over 10 µM throughout.

Consider `CNc1ccc(-c2cnc3ccc(N(CCCO)c4cc(OC)cc(OC)c4)cc3n2)cn1` [Compound 116], for which the IC50 in experiment [1] (setting [5]) and in experiment [2] (setting [6]) was over 10 µM throughout.

With `COc1cc(OC)cc(N(CCCO)c2ccc3ncc(-c4ccc(F)nc4)nc3c2)c1` [Compound 117], the IC50 in experiment [1] (setting [5]) and in experiment [2] (setting [6]) was over 10 µM each time.

Turning to `COc1cc(OC)cc(N(CCO)c2ccc3ncc(-c4ccnc(C(=O)NCCCN)c4)nc3c2)c1` [Compound 123], the IC50 in experiment [1] (setting [5]) and in experiment [2] (setting [6]) was over 10 µM in each case.

For `COc1cc(OC)cc(N(CCCO)c2ccc3ncc(-c4ccc(N5CCOCC5)nc4)nc3c2)c1` [Compound 124], the IC50 in experiment [1] (setting [5]) and in experiment [2] (setting [6]) was over 10 µM each time.

Turning to `COc1cc(OC)cc(N(CCCNCC(F)(F)F)c2ccc3ncc(-c4ccc(N(C)C(=O)OC(C)(C)C)nc4)nc3c2)c1` [Compound 127], the IC50 in experiment [1] (setting [5]) and in experiment [2] (setting [6]) was over 10 µM throughout.

For the compound `COc1cc(OC)cc(N(CCCO)c2ccc3ncc(-c4ccnc(NC(=O)OC(C)(C)C)c4)nc3c2)c1` [Compound 128], the IC50 in experiment [1] (setting [5]) and in experiment [2] (setting [6]) was over 10 µM throughout.
